According to US20250042925A1, “Improved Compositions and Methods for Targeting Mitochondria in Cancer Cells” (The Medical College of Wisconsin, Inc., priority 2021, published 2025):

Assays:
[1] = tested on: HPSC cells; test: TMRE retention (mitochondrial depolarization) by flow cytometry in HPSC; assay type: cell-based, human; conditions: HPSC cell line, 1 hour treatment
Protocol: AsPC-1 and HPSC cells were serum-starved overnight, loaded with tetramethylrhodamine ethyl ester (TMRE), and treated for 1 hour with the indicated concentrations of MMe or pCF3-MMe or, as the vehicle control, DMSO. Mitochondrial TMRE retention was measured by flow cytometry. Representative histograms of n=3 of TMRE fluorescence in AsPC-1 (FIG. 4A) and HPSC (FIG. 4B) in response to treatment. […] Total cellular ATP levels were analyzed using a luminescent ATP detection assay of KPC1242 cells treated with MMe (0.7 μM) or pCF3-MMe (3 μM), and changes in ATP levels were assayed (FIG. 4E). Representatives immunoblot analyses of phosphorylated and total AMPK levels (FIG. 4F) and densitometric quantification (FIG. 4G) in KPC1242 cells treated with MMe (0.7 μM) or pCF3-MMe (3 μM). […] Values are mean±SD from 3 biological replicates. Statistical differences in a, c, and e were determined using Student's t-test (*, p<0.05; **, p<0.01; ***, p<0.001, ns: not significant).
TPP-conjugated compounds are known to effectively target the mitochondria of cancer cells. Thus, the efficacy of pCF3-MMe to effectively target the mitochondria of cancer cells was tested and compared to normal cells using tetramethylrhodamine ethyl ester perchlorate (TMRE), a cell-permeant, positively-charged dye that accumulates in active mitochondria, and is released into the cytosol upon mitochondrial damage. […]

[2] = tested on: AMP-Activated Protein Kinase (AMPK); test: Immunoblot of AMPK Thr172 phosphorylation; assay type: cell-based, murine; conditions: 0.7 μM MMe or 3 μM pCF3-MMe
Protocol: The functional consequence of inhibiting mitochondria complex I and subsequently OXPHOS is a reduction of overall ATP levels in the cell. The ability of MMe to reduce ATP levels was previously reported in numerous cancer cell types. Thus, further studies were conducted to explore if pCF3-MMe retained similar properties. […] Cells, including cancer cells, must maintain a high ATP:ADP ratio to maintain cellular functions and survival. Moreover, AMP levels rise whenever the ATP:ADP ratio decreases, and an increase in the AMP:ATP ratio signals an energetic crisis in the cell. […]
Cells were serum-starved for 24 hours followed by compound treatment for 24 hours before lysis in RIPA buffer composed of 50 mM Tris-HCl, pH 7.4, 150 mM NaCl, 0.25% v/v sodium deoxycholate, 1% v/v Nonidet P-40, 0.1% v/v SDS, 1 mM EDTA, 10 mM sodium orthovanadate, 40 mM 0-glycerol phosphate, 20 mM sodium fluoride, and protease inhibitors cocktail set III (Millipore Sigma, Cat #539134). […] Primary antibodies were detected by incubating with secondary horseradish peroxidase-conjugated antibody (Cytiva, Amersham ECL rabbit IgG-HRP, Cat #NA9340). Densitometric quantification of phosphorylated, total or actin protein levels was measured using chemiluminescence and calculated using Alpha View Software.

[3] = tested on: KPC1242 cells; test: Seahorse Cell Mito Stress Test (oxygen consumption rate); assay type: cell-based, murine; conditions: 24 hours treatment, increasing concentrations
Protocol: To determine if the newly synthesized variants retain this functional specificity, further studies were conducted to determine if pCF3-MMe effectively impacts mitochondrial function and/or induces bioenergetic stress. KPC1242 cells were treated for 24 hours with increasing concentrations of MMe or pCF3-MMe, and oxygen consumption rate (OCR) was measured as a surrogate for oxidative phosphorylation linked mitochondrial respiration.
Cells were plated to Seahorse XF96 cell culture microplates at 20,000 cells/well. Stock compounds in DMSO were diluted in RPMI medium to a final concentration in […] volume, incubated at 37° C. for 24 hours, centrifuged at 200×g for 2 minutes, and conditioned medium removed and replaced with serum-free RPMI […]. Oxygen consumption (OCR) and extracellular flux (ECAR) were measured after injections of oligomycin (1 mg/mL), dinitrophenol […], rotenone […], and antimycin A […]. Analysis was performed by normalizing OCR and ECAR readouts to vehicle controls. Complex I and II activity were analyzed after permeabilization of the cells.

[4] = tested on: KPC1242 cells; test: Luminescent ATP detection assay; assay type: cell-based, murine; conditions: 24 hours; 0.7 μM MMe or 3 μM pCF3-MMe
Protocol: The functional consequence of inhibiting mitochondria complex I and subsequently OXPHOS is a reduction of overall ATP levels in the cell. The ability of MMe to reduce ATP levels was previously reported in numerous cancer cell types. Thus, further studies were conducted to explore if pCF3-MMe retained similar properties. […] Cells, including cancer cells, must maintain a high ATP:ADP ratio to maintain cellular functions and survival. Moreover, AMP levels rise whenever the ATP:ADP ratio decreases, and an increase in the AMP:ATP ratio signals an energetic crisis in the cell. This energetic crisis is sensed by the master regulator AMP-Activated Protein Kinase (AMPK), which is activated through Thr172 phosphorylation and controls many signaling pathways ranging from energy metabolism to cellular growth. Therefore, further studies were conducted to evaluate if the reduction in ATP levels induced by MMe or pCF3-MMe is sufficient to activate AMPK.
Intracellular ATP levels were determined in cell lysates using a Luminescent ATP Detection Assay Kit per the manufacturer's directions (Abcam, Cambridge, UK, Cat #ab113849).

Structure (SMILES)	TMRE accumulation within the mitochondria [1]	AMPK activation (Thr172 phosphorylation) [2]	basal OCR, ATP-linked respiration, and maximal respiratory capacity [3]	levels of ATP [4]
N=C(N)NC(=N)NCCCCCCCCCC[P+](c1ccccc1)(c1ccccc1)c1ccccc1.[Br-] [MMe, 10-[(carbamimidamidomethanimidoyl)amino]decyl-triphenylphosphonium bromide, reference compound]	did not affect TMRE accumulation	significant increase in AMPK activation	concentration-dependent decrease	significantly reduced
N=C(N)NC(=N)NCCCCCCCCCC[P+](c1ccc(C(F)(F)F)cc1)(c1ccc(C(F)(F)F)cc1)c1ccc(C(F)(F)F)cc1.[Br-] [pCF3-MMe, (10-(3-carbamimidoylguanidino)decyl)tris(4-(trifluoromethyl)phenyl)phosphonium bromide]	did not affect TMRE accumulation	significant increase in AMPK activation	concentration-dependent decrease	significantly reduced
